Test results: patent publication US9795597B2, “Cyclopropylamines as LSD1 inhibitors” (GlaxoSmithKline Intellectual Property (No.2) Limited, priority 2011, dated 2017)

Tests used:
MAO-B = target: T1, MAO-B (Homo sapiens, UniProt P27338); assay: Biochemical assay for MAO-B activity (FLINT, benzylamine/amplex red); conditions: average of two or more tests; 30 min preincubation of enzyme and compound; read-out: MAOB PIC50 MEAN (converted)
T1 construct: purchased Gentest-BD Biosciences 456284
T1 sequence (P27338 1-520): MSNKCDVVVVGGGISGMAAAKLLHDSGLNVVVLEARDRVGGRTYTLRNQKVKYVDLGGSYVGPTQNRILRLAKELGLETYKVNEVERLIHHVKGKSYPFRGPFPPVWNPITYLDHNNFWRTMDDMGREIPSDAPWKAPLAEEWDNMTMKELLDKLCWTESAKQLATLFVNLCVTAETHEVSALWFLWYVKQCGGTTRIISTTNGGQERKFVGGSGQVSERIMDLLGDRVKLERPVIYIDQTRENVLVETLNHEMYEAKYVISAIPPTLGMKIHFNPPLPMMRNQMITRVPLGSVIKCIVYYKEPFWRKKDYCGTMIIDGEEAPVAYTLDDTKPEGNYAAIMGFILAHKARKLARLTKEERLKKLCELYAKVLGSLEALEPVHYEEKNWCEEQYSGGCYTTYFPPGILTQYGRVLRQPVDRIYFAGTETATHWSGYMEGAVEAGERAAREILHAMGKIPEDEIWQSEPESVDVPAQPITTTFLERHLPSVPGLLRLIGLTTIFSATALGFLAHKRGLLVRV
Method: Biochemical Assay for MAO-B Activity
The MAO-B FLINT assay is performed in a buffer containing 50 mM potassium phospate, pH 7.4, in milliQ ultrapure water. […] The enzyme and test compound are allowed to incubate together for 30 minutes at room temperature. Five microliters of the substrate mix are then added to each well of the plate to initiate the reaction. The plates are covered, protected from light and allowed to incubate for one hour at room temperature. […] Percent inhibition is calculated based on no compound and no enzyme controls, and inhibition curves are then plotted to determine PIC50 values.

LSD1 = target: T2, LSD1 (Homo sapiens, UniProt O60341); assay: Biochemical assay for LSD-1 activity (luminescence, H3K4 dimethylated peptide substrate); conditions: average of two or more tests; 30 min preincubation of enzyme and compound; read-out: LSD1 PIC50 MEAN (converted)
T2 construct: made in house
Method: Biochemical Assay for LSD-1 Activity
The LSD-1 luminescence assay is performed in a buffer containing 25 mM Tris, pH 7.5, 50 mM potassium chloride, 0.02% heat-denatured BSA, 2 mM CHAPS and milliQ ultrapure water. […] The enzyme and test compound are allowed to incubate together for 30 minutes at room temperature. Two microliters of the substrate mix are then added to each well of the plate to initiate the reaction. The plates are covered, protected from light and allowed to incubate for two hours at room temperature. Then, 4 uL of HyPerBlu peroxide detection luminescence reagent (Lumigen/Beckman Coulter, cat# HPB-00005) is added to each well to quench the demethylase reaction and generate the peroxide-dependent luminescence signal. The plates are then incubated for 15-30 minutes in the dark at room temperature prior to being read for Luminescence using a Perkin Elmer Viewlux plate reader. Percent inhibition is calculated based on no compound and no enzyme controls, and inhibition curves are then plotted to determine PIC50 values.

Row | Structure (SMILES) | IC50 (MAO-B) [µM] | IC50 (LSD1) [µM]
1 | c1ccc([C@@H]2C[C@H]2NCC2CCCCC2)cc1 (relative stereo) [Example 7, trans-N-(Cyclohexylmethyl)-2-phenylcyclopropanamine] | 0.398 | 0.158
2 | CC(C)(C)OC(=O)N[C@H]1CC[C@H](CN[C@@H]2C[C@H]2c2ccccc2)CC1 (relative stereo) [Example 9, 1,1-Dimethylethyl[trans-4-({[trans-2-phenylcyclopropyl]amino}methyl)cyclohexyl]carbamate] | 0.398 | 0.158
3 | N[C@H]1CC[C@H](CN[C@@H]2C[C@H]2c2ccccc2)CC1 (relative stereo) [Example 10, trans-4-({[trans-2-Phenylcyclopropyl]amino}methyl)cyclohexanamine] | 7.94 | 0.00794
4 | O=C(Nc1ccccc1)N1CCC(CN[C@@H]2C[C@H]2c2ccccc2)CC1 (relative stereo) [Example 12, N-Phenyl-4-(((trans-2-phenylcyclopropyl)amino)methyl)piperidine-1-carboxamide] | 2 | 0.0794
5 | O=S(=O)(c1ccccc1)N1CCC(CN[C@@H]2C[C@H]2c2ccccc2)CC1 (relative stereo) [Example 13, trans-2-Phenyl-N-((1-(phenylsulfonyl)piperidin-4-yl)methyl)cyclopropanamine] | 5.01 | 0.0501
6 | O=C(c1ccccc1)N1CCC(CN[C@@H]2C[C@H]2c2ccccc2)CC1 (relative stereo) [Example 14, Phenyl(4-(((trans-2-phenylcyclopropyl)amino)methyl)piperidin-1-yl)methanone] | 39.8 | 0.126
7 | CC(=O)N(CC1CCNCC1)[C@@H]1C[C@H]1c1ccccc1 (relative stereo) [Example 17, N-(trans-2-Phenylcyclopropyl)-N-(piperidin-4-ylmethyl)acetamide] | 63.1 | 20
8 | O=C(OCc1ccccc1)N1CCC(CN[C@@H]2C[C@H]2c2ccccc2)CC1 (relative stereo) [Example 18, Benzyl 4-(((trans-2-phenylcyclopropyl)amino)methyl)piperidine-1-carboxylate] | 0.631 | 0.0316
9 | Fc1ccccc1C[N+]1(Cc2ccccc2F)CCC(CN[C@@H]2C[C@H]2c2ccccc2)CC1 (relative stereo) [Example 35, 1,1-Bis(2-fluorobenzyl)-4-(((trans-2-phenylcyclopropyl)amino)methyl)piperidin-1-ium chloride] | 31.6 | 0.0158
10 | CN(CCC1CCNCC1)[C@@H]1C[C@H]1c1ccccc1 (relative stereo) [Example 77, trans-N-Methyl-2-phenyl-N-(2-(piperidin-4-yl)ethyl)cyclopropanamine] | 31.6 | 0.2
11 | O=S(=O)(Nc1ccc([C@@H]2C[C@H]2NCC2CCNCC2)cc1)c1ccccc1 (relative stereo) [Example 91, N-(4-((trans)-2-((piperidin-4-ylmethyl)amino)cyclopropyl)phenyl)benzenesulfonamide] | 15.8 | 0.00631
12 | c1ccc(C2C[C@@H]2NCC2CCCNC2)cc1 (stereo in doubt) [Example 16, [trans-2-Phenylcyclopropyl](3-piperidinylmethyl)amine] | 39.8 | 0.00794
13 | CC(C)(C)OC(=O)N1CCCC(CN[C@H]2CC2c2ccccc2)CC1 (stereo in doubt) [Example 21, 1,1-Dimethylethyl 4-({[trans-2-phenylcyclopropyl]amino}methyl)hexahydro-1H-azepine-1-carboxylate] | 15.8 | 2
14 | CC(N[C@H]1CC1c1ccccc1)C1CCNCC1 (stereo in doubt) [Example 24, [trans-2-Phenylcyclopropyl][1-(4-piperidinyl)ethyl]amine] | 63.1 | 0.01
15 | c1ccc(C2C[C@@H]2NCC2CNCCO2)cc1 (stereo in doubt) [Example 25, N-(2-Morpholinylmethyl)-trans-2-phenylcyclopropanamine] | 12.6 | 0.02
16 | CN(CC1CCNCC1)[C@H]1CC1c1ccccc1 (some centres unmarked) [Example 19] | 31.6 | –

The next lines start with the values.

Row | IC50 (MAO-B) [µM] | IC50 (LSD1) [µM] | Structure (SMILES)
17 | 25.1 | 0.00631 | c1ccc(CN2CCC(CN[C@@H]3C[C@H]3c3ccccc3)CC2)cc1 (relative stereo) [Example 8, [trans-2-Phenylcyclopropyl]{[1-(phenylmethyl)-4-piperidinyl]methyl}amine]
18 | 31.6 | 0.0126 | OCCN1CCC(CN[C@@H]2C[C@H]2c2ccccc2)CC1 (relative stereo) [Example 11, 2-(4-(((trans-2-Phenylcyclopropyl)amino)methyl)piperidin-1-yl)ethanol]
19 | 15.8 | 0.316 | CC(=O)N1CCC(CN[C@@H]2C[C@H]2c2ccccc2)CC1 (relative stereo) [Example 15, 1-(4-(((trans-2-Phenylcyclopropyl)amino)methyl)piperidin-1-yl)ethanone]
20 | 25.1 | 0.00631 | CN1CCC(CN[C@@H]2C[C@H]2c2ccccc2)CC1 (relative stereo) [Example 20, [(1-Methyl-4-piperidinyl)methyl][trans-2-phenylcyclopropyl]amine]
21 | 50.1 | 0.2 | O=C(O)c1ccc(CN2CCC(CN[C@H]3C[C@@H]3c3ccccc3)CC2)cc1 (relative stereo) [Example 26, 4-((4-(((trans-2-phenylcyclopropyl)amino)methyl)piperidin-1-yl)methyl)benzoic acid]
22 | 63.1 | 0.2 | O=C(O)CN1CCC(CN[C@H]2C[C@@H]2c2ccccc2)CC1 (relative stereo) [Example 27, 2-(4-(((trans-2-phenylcyclopropyl)amino)methyl)piperidin-1-yl)acetic acid]
23 | 50.1 | 0.0158 | c1ccc([C@@H]2C[C@H]2NCC2CCN(Cc3ccncc3)CC2)cc1 (relative stereo) [Example 33, trans-2-Phenyl-N-((1-(pyridin-4-ylmethyl)piperidin-4-yl)methyl)cyclopropanamine]
24 | 0.501 | 0.00631 | CS(=O)(=O)c1ccc(CN2CCC(CN[C@@H]3C[C@H]3c3ccccc3)CC2)cc1 (relative stereo) [Example 43, trans-N-((1-(4-(Methylsulfonyl)benzyl)piperidin-4-yl)methyl)-2-phenylcyclopropanamine]
25 | 15.8 | 0.1 | Cc1cc(CN2CCC(CN[C@@H]3C[C@H]3c3ccccc3)CC2)no1 (relative stereo) [Example 47, trans-N-((1-((5-Methylisoxazol-3-yl)methyl)piperidin-4-yl)methyl)-2-phenylcyclopropanamine]
26 | 7.94 | 0.0251 | OB1OCc2c(CN3CCC(CN[C@@H]4C[C@H]4c4ccccc4)CC3)cccc21 (relative stereo) [Example 55, 4-((4-(((trans-2-Phenylcyclopropyl)amino)methyl)piperidin-1-yl)methyl)benzo[c][1,2]oxaborol-1(3H)-ol]
27 | 31.6 | 0.00794 | OB(O)c1ccc(CN2CCC(CN[C@@H]3C[C@H]3c3ccccc3)CC2)cc1 (relative stereo) [Example 57, (4-((4-(((trans-2-phenylcyclopropyl)amino)methyl)piperidin-1-yl)methyl)phenyl)boronic acid]
28 | 15.8 | 0.0794 | Cc1noc(C)c1S(=O)(=O)N1CCC(CN[C@@H]2C[C@H]2c2ccccc2)CC1 (relative stereo) [Example 100, trans-N-((1-((3,5-dimethylisoxazol-4-yl)sulfonyl)piperidin-4-yl)methyl)-2-phenylcyclopropanamine]
29 | 100 | 0.0794 | c1ccc(C2C[C@@H]2NCC2CCCNCC2)cc1 (stereo in doubt) [Example 22, N-(Hexahydro-1H-azepin-4-ylmethyl)-trans-2-phenylcyclopropanamine]
30 | 0.631 | 0.0398 | CC(C)(C)OC(=O)N1CCC(CN[C@@H]2C[C@H]2c2ccccc2)CC1 [Example 2, 1,1-Dimethylethyl 4-({[(1R,2S)-2-phenylcyclopropyl]amino}methyl)-1-piperidinecarboxylate]
